This note sets out measurements from US7776882B2, “2-amino-3,4-dihydro-quinoline derivatives useful as inhibitors of β-secretase (BACE)” (priority 2006, dated 2010).

Structures are written as SMILES. Where “and” joins values, the source holds several entries; their conditions need not be identical. Equal values may be shown once.

Common to all, as to assay type: biochemical
The target in assay [1] is T1, β-secretase (BACE) (Homo sapiens, UniProt P56817).
T1 construct: purchased Panvera
The assay can be described thus: In Vitro BACE % Inhibition Assay, (Aedens)-[…]-(Dabcyl K-amide) substrate (Example 12). The conditions noted are these: for % Inhibition 3 μM: 3 μM compound; for % Inhibition 3 μM / % Inhibition 10 μM: values below about 25% (including negative) within noise; for % Inhibition 10 μM: 10 μM compound. As for the experimental part:
The following reagents were used in this assay: sodium acetate, PEG8000 (Sigma), DMSO, HEPES, (Aedens)-[…]-(Dabcyl K-amide) substrate, β-secretase (BACE) (Panvera), and 96-well plate (HE microplate, Molecular Devices).
(§1) The following assay buffers were prepared and used in this assay: (1) enzyme assay buffer (0.05 M sodium acetate, pH5, 0.1% PEG8000 (w/v)), (2) substrate assay buffer (0.05 M sodium acetate, pH5), and (3) compound vehicle (30% DMSO in 50 mM HEPES, pH 7.4).
The substrate stock solution was prepared in DMSO as a 10 mg/mL solution. The substrate working solution was prepared by diluting the 10 mg/mL stock solution with substrate assay buffer to a final concentration of 300 μg/mL. The β-secretase (BACE) working solution was prepared by diluting a 0.83 mg/mL BACE stock solution with enzyme assay buffer to a final concentration of 4 μg/mL.
(§2) Test compounds were dissolved in DMSO to 10 mM. Compounds were further diluted in vehicle to various concentrations in the range of 405 μM to 4.05 μM (13.5×final compound concentration in screening plate).
The screening procedure for this assay was as follows: 15 μL of BACE working solution was pipetted into each well of a 96-well plate. To each well was then pipetted 2 μL of test compound at the selected concentration. Test compound and BACE were then mixed with a pipettor and incubated for 20 min at room temperature. To each well was then added 10 μL of the substrate working solution. The plates were then incubated for 1 hour at room temperature. The fluorescence for each well was then measured on an LJL analyst (Ex 360 nm/Em 530 nm).
The procedure for the blank (negative control) was as follows. 15 μL of assay buffer was pipetted into each well to be used as a blank control. To each well was then added 2 μL of vehicle and 10 μL of substrate working solution. The plates were then incubated for 1 hour at room temperature. The fluorescence was measured on an LJL analyst (Ex 360 nm/Em 530 nm).
The procedure for the positive control was as follows: 15 μl of BACE working solution was pipetted into each well to be used as a positive control. To each well was then pipetted 2 μL of vehicle. Vehicle and BACE were then mixed with a pipettor and incubated for 20 min at room temperature. To each well was then added 10 μL of the substrate working solution. The plates were then incubated for 1 hour at room temperature. The fluorescence (Fl) was then measured on an LJL analyst (Ex 360 nm/Em 530 nm).
For test compounds, % inhibition was determined at each concentration as follows:
% Inhibition values of less than 30% were indistinguishable from control and are listed as ≦30% in the Table below.

The target in assay [2] is T1, β-secretase (BACE). The assay can be described thus: In Vitro BACE Assay, Ki (Example 11). The conditions noted are these: Ki (μM) (Example 11), FS1 substrate 50 μM, Km 24 μM. The method, then: The following reagents were used in this assay: sodium acetate, PEG8000 (Sigma), DMSO, HEPES, FS1 substrate [R(AedensE)[…]-(DabcylK)R], β-secretase (BACE) (Panvera), and 96-well plate (HE microplate, Molecular Devices).
as §1
(§3) The FS1-substrate stock solution was prepared in DMSO as a 10 mg/mL solution. The FS1-substrate working solution was prepared by diluting the 10 mg/mL stock solution with substrate assay buffer to a final concentration of 300 μg/mL. The β-secretase (BACE) working solution was prepared by diluting a 0.83 mg/mL BACE stock solution with enzyme assay buffer to a final concentration of 4 μg/mL.
Test compounds were dissolved in DMSO at 10 mM.
The procedure for this assay was as follows: 15 μL of BACE working solution was pipetted into each well of a 96-well plate. To each well was then pipetted 2 μL of test compound at the selected concentration. Test compound and BACE were then mixed with a pipettor and incubated for 20 min at room temperature. To each well was then added 10 μL of the FS1 substrate working solution. The fluorescence for each well was then measured on a Polarstar fluorometer (Ex 390 nm/Em 520 nm) for 20 min at room temperature, reading fluorescence at 1 min intervals.
The procedure for the positive control was as follows: 15 μL of BACE working solution was pipetted into each well to be used as a positive control. To each well was then pipetted 2 μL of vehicle. Vehicle and BACE were then mixed with a pipettor and incubated for 20 min at room temperature. To each well was then added 10 μL of the FS1 substrate working solution. The fluorescence was then measured on a Polarstar fluorometer (Ex 390 nm/Em 520 nm) for 20 min at room temperature, reading fluorescence at 1 min intervals.
For test compounds, Ki inhibition was determined as follows: For each compound concentration and positive control, rate of cleavage of substrate (Vi, where i=compound concentration in μM) was determined as Δ Fluorescence/Δ time (min). Cleavage rates (Vi) were plotted as a function of inhibitor concentration in μM [I]. The Ki was then determined by fitting the following equation to the graph of [I] vs Vi Y=aVmax/(50+24*(1+X/Ki)),

Another assay concerns the target T2, human BACE-1 (Homo sapiens, UniProt P56817).
T2 construct: purchased CEREP (contract assay) 761-B
The assay can be described thus: In Vitro BACE Assay run by CEREP (Example 14). The conditions noted are these: recombinant enzyme, 60 min at 37° C., pH 4.5. As for the experimental part: This assay was run by CEREP (Catalog Ref. 761-B, Referred to SOP No. 1C131; ERMOLIEFF, J., LOY, J. A., KOELSCH, G. and TANG, J., Proteolytic activation of recombinant pro-memapsin 2 (pro-BACE) studied with new fluorogenic substrates, Biochemistry, (2000) Vol. 39, p. 12450).
More specifically the assay, run at 50 μL in a 96 well plate, evaluated the effect of test compound on the activity of the human BACE-1 quantified by measuring the formation of Mca-S-E-V-N-L-NH2 from Mca-S-E-V-N-L-D-A-E-F-R-K(Dnp)-R-R-NH2, using a recombinant enzyme.
The test compound, reference compound or water (control) was added to a buffer containing 0.09 M sodium acetate (pH 4.5) and 0.25 μg BACE-1. Compound interference with the fluorimetric detection method due to autofluorescence was then checked by measurements at the wavelengths defined to evaluate the enzyme activity. Thereafter, the reaction was initiated by adding 7.5 μM of the substrate Mca-S-E-V-N-L-D-A-E-F-R-K(Dnp)-R-R-NH2 and the mixture was incubated for 60 min at 37° C. For control basal measurement, the substrate was omitted from the reaction mixture. Immediately after the incubation, the fluorescence intensity emitted by the reaction product Mca-S-E-V-N-L-NH2 was measured at λex=320 nm and λem=405 nm using a microplate reader (Ultra, Tecan). The standard inhibitory reference compound was OM99-2, which was tested in each experiment at several concentrations to obtain an inhibition curve from which its IC50 value was calculated.

Assay [3] deals with T1, β-secretase (BACE). The assay is described as follows: In Vitro BACE FS1 % Inhibition Assay (Example 10). The note with it: FS1 substrate, values below about 25% (including negative) within noise. As for the experimental part: as §1, §3, §2
The screening procedure for this assay was as follows: 15 μL of BACE working solution was pipetted into each well of a 96-well plate. To each well was then pipetted 2 μL of test compound at the selected concentration. Test compound and BACE were then mixed with a pipettor and incubated for 20 min at room temperature. To each well was then added 10 μL of the FS1 substrate working solution. The plates were then incubated for 1 hour at room temperature. The fluorescence for each well was then measured on an LJL analyst (Ex 360 nm/Em 530 nm).
The procedure for the blank (negative control) was as follows. 15 μL of assay buffer was pipetted into each well to be used as a blank control. To each well was then added 2 μL of vehicle and 10 μL of FS1-substrate working solution. The plates were then incubated for 1 hour at room temperature. The fluorescence was measured on an LJL analyst (Ex 360 nm/Em 530 nm).
The procedure for the positive control was as follows: 15 μL of BACE working solution was pipetted into each well to be used as a positive control. To each well was then pipetted 2 μL of vehicle. Vehicle and BACE were then mixed with a pipettor and incubated for 20 min at room temperature. To each well was then added 10 μL of the FS1 substrate working solution. The plates were then incubated for 1 hour at room temperature. The fluorescence (Fl) was then measured on an LJL analyst (Ex 360 nm/Em 530 nm).
For test compounds, % inhibition was determined at each concentration as follows: […]

Assay [4] deals with T1, β-secretase (BACE). The assay is described as follows: In Vitro BACE IC50 Assay, MCA-substrate (Example 13). The conditions noted are these: 1 hour at room temperature. An excerpt:
The following standards are reagents were used in this assay: Sodium Citrate trisodium salt dihydrate (Sigma), Citric Acid monohydrate (Merck), PEG8000 (Sigma), MCA-substrate (Bachem), β-secretase (BACE) (Panvera), 96-well black plate (Costar (Elscolab)), StatVal (Bachem). The standard assay buffer solution prepared and used in this assay is as follows: 0.05 M, pH 5.0 mixture of sodium citrate trisodium salt dihydrate (9.56 g), citric acid monohydrate (3.68 g) and PEG8000 (0.50 g). The MCA-substrate stock solution was prepared by mixing 10 mg MCA-substrate with 5 mL DMSO for a final solution concentration of 2.0 mg/mL. […]
Briefly, the procedure for this BACE IC50 assay was as follows. […] Each well was mixed for a few seconds and the T0 measured with a Fluoroscan Ex320/Em405. The plates were then incubated for 1 hour at room temperature and the T60 measured with the Fluoroscan Ex 320 nm/Em 405 nm.
The procedure for the blank (reference well) was as follows. […] The T0 was measured with the Fluoroscan Ex 320 nm/Em 405 nm, the plate was incubated for 1 hour at room temperature and the T60 was then measured with the Fluoroscan Ex 320 nm/Em 405 nm.
The procedure for the positive control was as follows. […] The T0 was measured with the Fluoroscan Ex 320 nm/Em 405 nm, the plate was incubated for 1 hour at room temperature and the T60 was then measured with the Fluoroscan Ex 320 nm/Em 405 nm. […]

For orientation: Ki means a measure of affinity in units of concentration, obtained from inhibition or displacement. Read a low Ki as higher affinity. In general, inhibition refers to the drop in the measured response relative to a control, in per cent. One may read the IC50 as the concentration at which inhibition is half-maximal.

T1 sequence (P56817 46-501): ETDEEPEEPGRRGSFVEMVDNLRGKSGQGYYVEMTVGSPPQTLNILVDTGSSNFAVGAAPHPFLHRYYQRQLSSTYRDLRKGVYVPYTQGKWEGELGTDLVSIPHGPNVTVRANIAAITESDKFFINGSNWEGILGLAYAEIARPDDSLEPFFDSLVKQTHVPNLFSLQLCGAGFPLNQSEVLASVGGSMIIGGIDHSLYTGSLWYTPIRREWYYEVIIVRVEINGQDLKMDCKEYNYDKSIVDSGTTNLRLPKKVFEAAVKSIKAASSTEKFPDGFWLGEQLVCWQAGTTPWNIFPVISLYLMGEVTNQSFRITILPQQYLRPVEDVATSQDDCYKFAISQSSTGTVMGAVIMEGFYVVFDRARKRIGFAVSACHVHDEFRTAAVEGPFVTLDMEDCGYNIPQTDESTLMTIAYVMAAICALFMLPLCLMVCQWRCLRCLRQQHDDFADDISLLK
T2 sequence (P56817 46-501): as above

For `CN(C(=O)CCC1Cc2cc(Oc3ccccc3)ccc2N=C1N)C1CCCCC1` (stereo not drawn) [compound 101], the figures for the Ki on β-secretase (BACE) [1] and at β-secretase (BACE) [2] were 280 nM and 0.1 µM, respectively.
With `CN(C(=O)CCc1cc2cc(Oc3ccccc3)ccc2nc1N)C1CCCCC1` [compound 1], on β-secretase (BACE) [1], the “% Inhibition 3 μM” value is given as −8.5% and the “% Inhibition 10 μM” value turned out to be 9%.
For `CN(C(=O)CCC(c1cc2cc(Oc3ccccc3)ccc2nc1N)C1CCOCC1)C1CCCCC1` (stereo not drawn) [compound 23], the values for the inhibition at 1 µM on human BACE-1 (1 μM compound) and on β-secretase (BACE) [3] (1 μM compound) were 78% and 88%, respectively. Moreover, the IC50 on human BACE-1 is 420 nM. The Ki at β-secretase (BACE) [2] was 0.12 µM and 0.31 µM. In addition, on β-secretase (BACE) [3] (0.3 μM compound, 0.3 µM), the “% Inhibition (Example 10) @ 0.3 μM” value was 34% and 64%. Moreover, the “% Inhibition (Example 10) @ 1 μM” value at β-secretase (BACE) [3] (1 μM compound, 1 µM) stood at 93%. Moreover, at β-secretase (BACE) [3] (3 μM compound), the inhibition at 3 µM turned out to be 127%. In addition, the “% Inhibition (Example 10) @ 3 μM” value at β-secretase (BACE) [3] (3 μM compound, 3 µM) was 125%.
On β-secretase (BACE) [4], `CN(C(=O)CC[C@@H]1Cc2cc(Oc3ccccc3)ccc2N=C1N)C1CCCCC1` [compound 103] came in with an IC50 of 220 nM.
As to `CN(C(=O)CC[C@H]1Cc2cc(Oc3ccccc3)ccc2N=C1N)C1CCCCC1` [compound 102], the IC50 against β-secretase (BACE) [4] turned out to be 170 nM.
For the molecule `CC(C)(C)OC(=O)CCc1cc2cc(Oc3ccccc3)ccc2nc1N` [compound 501], on β-secretase (BACE) [1], the “% Inhibition 3 μM” value came out at 12% and the “% Inhibition 10 μM” value is −36%.
On to `Nc1nc2ccc(Oc3ccccc3)cc2cc1CCC(=O)O` [compound 502], for which, on β-secretase (BACE) [1], the “% Inhibition 3 μM” value is −8% and the “% Inhibition 10 μM” value was −16%.
